This is an account of results in patent publication US20240174648A1, “Small Molecule Compound” (Technoderma Medicines Pte Ltd, priority 2019, published 2024).

The target of one experiment is JAK1 (Homo sapiens, UniProt P23458). Briefly: JAK kinase inhibition assay (EZ Reader, peptide substrate phosphorylation) - JAK1. The settings on record: JAK1 kinase 20 nM; 8 concentration points, max 10 μM. The format is biochemical. The source says: (§1) Assay for Identifying Inhibitory Effects of Compounds on JAK Kinases
JAK1, sequence (P23458 whole entry): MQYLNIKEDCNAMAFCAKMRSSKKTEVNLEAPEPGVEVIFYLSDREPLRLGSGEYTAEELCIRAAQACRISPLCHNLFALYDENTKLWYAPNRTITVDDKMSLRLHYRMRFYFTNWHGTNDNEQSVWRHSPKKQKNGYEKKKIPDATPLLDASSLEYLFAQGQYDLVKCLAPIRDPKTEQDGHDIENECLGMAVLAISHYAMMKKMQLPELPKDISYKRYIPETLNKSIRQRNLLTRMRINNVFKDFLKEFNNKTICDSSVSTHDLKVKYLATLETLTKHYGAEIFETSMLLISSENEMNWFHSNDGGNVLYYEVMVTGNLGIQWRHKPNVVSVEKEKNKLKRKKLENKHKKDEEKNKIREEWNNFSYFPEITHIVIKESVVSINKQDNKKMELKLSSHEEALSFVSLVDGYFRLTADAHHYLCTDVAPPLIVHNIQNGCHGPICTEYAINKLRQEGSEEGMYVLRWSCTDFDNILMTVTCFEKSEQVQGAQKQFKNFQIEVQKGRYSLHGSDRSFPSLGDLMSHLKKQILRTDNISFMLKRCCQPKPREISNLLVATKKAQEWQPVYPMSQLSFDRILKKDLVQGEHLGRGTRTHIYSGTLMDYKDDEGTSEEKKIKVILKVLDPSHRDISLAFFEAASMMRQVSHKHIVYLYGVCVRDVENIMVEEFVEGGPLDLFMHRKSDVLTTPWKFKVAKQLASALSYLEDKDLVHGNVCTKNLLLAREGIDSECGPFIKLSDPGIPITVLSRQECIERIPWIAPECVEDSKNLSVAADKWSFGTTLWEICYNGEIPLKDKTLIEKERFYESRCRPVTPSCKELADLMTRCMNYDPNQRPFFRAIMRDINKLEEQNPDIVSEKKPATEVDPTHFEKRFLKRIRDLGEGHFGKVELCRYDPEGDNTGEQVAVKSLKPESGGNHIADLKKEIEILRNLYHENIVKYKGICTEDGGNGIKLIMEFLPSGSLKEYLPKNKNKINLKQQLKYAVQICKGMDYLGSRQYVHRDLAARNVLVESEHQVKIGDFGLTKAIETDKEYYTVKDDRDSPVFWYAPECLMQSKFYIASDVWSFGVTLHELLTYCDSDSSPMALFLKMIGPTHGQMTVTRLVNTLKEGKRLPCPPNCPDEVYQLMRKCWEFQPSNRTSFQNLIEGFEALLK
(§2) Janus kinases (JAK), including JAK1, JAK2, JAK3 and Tyk2, transduce a cytokine-mediated signal through a JAK-STAT pathway. The kinases are 120-140 kDa in size and have 7 determined homology regions: JH1 to JH7. JH1 is an important region for enzymatic activity and has typical characteristics of tyrosine kinases. Phosphorylation of tyrosine leads to a change in the conformation of JAK protein, thereby promoting binding of substrate. The JAK-STAT system includes three main parts: receptors penetrating a cell membrane, Janus kinases binding to the receptors, and signal transducers and activators of transcription (STAT) for transmitting signals to a nucleus and DNA. When cytokines bind to receptors, JAK phosphorylates the receptors and attracts STAT proteins. The STAT proteins are also phosphorylated and combined with one another to form dimers. The dimers enter the nucleus and bind to DNA, thereby leading to gene transcription.
(§3) EZ Reader from PerkinElmer can be used to detect the phosphorylation of polypeptide substrates catalyzed by kinases. The device is based on microfluidic techniques, and can directly detect fluorescently labeled substrates and products. The separation step is achieved by controlling the pressure and electric field strength in the microfluidic chip. In kinase assays, a product conversion ratio is usually controlled to be 20-30%. A biological test is used to identify inhibitory effects of compounds on JAKs.
(§4) Compound powder was dissolved in DMSO, sealed and stored in a freezer under −20° C. The in-house compound Ref1 was used as a positive control for JAK1, JAK2 and Tyk2 tests, and Ref2 was used as a positive control for JAK3 tests.
(§5) S2.8. Assay buffer: 20 mM HEPES buffer, pH 7.4, 10 mM magnesium chloride, 0.01% bovine serum albumin BSA, 0.0005% Tween-20 and 1 mM dithiothreitol solution.
(§6) S2.9. Stop buffer: 180 mM HEPES buffer, 20 mM ethylenediaminetetraacetic acid and 0.2% coating reagent 3.
(§7) S2.10. Separation buffer: 100 mM HEPES buffer, 10 mM ethylenediaminetetraacetic acid, 0.0005% Tween 20, 0.1% coating reagent 3 and 1% dimethyl sulfoxide.
(§8) The compound was dissolved in dimethyl sulfoxide and diluted to 10 mM concentration, a certain volume of solution was taken and diluted to 0.6 mM concentration, 10 μL of the 0.6 mM dilution was added to a 384-well microplate, and then was diluted 3-fold with a total of 8 concentration points.
(§9) Positive control (HPE1): Ref1, final concentration: 10 μM […]
(§10) Negative control (ZPE): DMSO, final content: 1.6%
(§11) Compounds: maximum final concentration: 10 μM; 3-fold dilution, 8 concentration points and 2 duplicates.
(§12) S4.1. 250 nL of the compound was added to each well of the assay microplate by using ECHO, and centrifuged at 1000 rpm for 1 minute.
(§13) S4.2. 5 μL of the assay buffer was added and agitated for a few seconds to fully dissolve the compound.
(§14) S4.3. 5 μL of 3× substrate solution and 5 μL of 3× kinase solution were added and centrifuged at 800 rpm for 1 minute.
(§15) S4.4. Final concentrations of JAK1, JAK2, JAK3 and Tyk2 kinases in the reaction system were 20 nM, 1 nM, 1 nM and 1 nM respectively.
(§16) S4.5. Incubation at room temperature, where kinases had time differences, and different batches of kinases had time differences.
(§17) S4.6. When 20%-30% of the reaction completed, 15 μL of stop buffer was added to stop the reaction, and centrifuged at 1000 rpm for 2 minutes.
(§18) S4.7. The microplates were placed on EZ Reader for reading.
(§19) S4.8. Readings on EZ Reader were calculated by using a peak height, where product conversion ratio (%)=product/(product+substrate)*100.
(§20) 5. Data Processing: IC50 calculation
(§21) A graphing software Xlfit was used to form a concentration curve of the test compound, and an IC50 value was calculated.
(§22) “A” means “≥10 μM”; “B” means “≥1 μM and <10 μM”; “C” means “≥0.1 μM and <1 μM”; and “D” means “<0.1 μM”.

In another experiment the target is Tyk2 (Homo sapiens, UniProt P29597). Description: JAK kinase inhibition assay (EZ Reader, peptide substrate phosphorylation) - Tyk2. The format is biochemical. As to conditions: Tyk2 kinase 1 nM; 8 concentration points, max 10 μM.
Tyk2, sequence (P29597 whole entry): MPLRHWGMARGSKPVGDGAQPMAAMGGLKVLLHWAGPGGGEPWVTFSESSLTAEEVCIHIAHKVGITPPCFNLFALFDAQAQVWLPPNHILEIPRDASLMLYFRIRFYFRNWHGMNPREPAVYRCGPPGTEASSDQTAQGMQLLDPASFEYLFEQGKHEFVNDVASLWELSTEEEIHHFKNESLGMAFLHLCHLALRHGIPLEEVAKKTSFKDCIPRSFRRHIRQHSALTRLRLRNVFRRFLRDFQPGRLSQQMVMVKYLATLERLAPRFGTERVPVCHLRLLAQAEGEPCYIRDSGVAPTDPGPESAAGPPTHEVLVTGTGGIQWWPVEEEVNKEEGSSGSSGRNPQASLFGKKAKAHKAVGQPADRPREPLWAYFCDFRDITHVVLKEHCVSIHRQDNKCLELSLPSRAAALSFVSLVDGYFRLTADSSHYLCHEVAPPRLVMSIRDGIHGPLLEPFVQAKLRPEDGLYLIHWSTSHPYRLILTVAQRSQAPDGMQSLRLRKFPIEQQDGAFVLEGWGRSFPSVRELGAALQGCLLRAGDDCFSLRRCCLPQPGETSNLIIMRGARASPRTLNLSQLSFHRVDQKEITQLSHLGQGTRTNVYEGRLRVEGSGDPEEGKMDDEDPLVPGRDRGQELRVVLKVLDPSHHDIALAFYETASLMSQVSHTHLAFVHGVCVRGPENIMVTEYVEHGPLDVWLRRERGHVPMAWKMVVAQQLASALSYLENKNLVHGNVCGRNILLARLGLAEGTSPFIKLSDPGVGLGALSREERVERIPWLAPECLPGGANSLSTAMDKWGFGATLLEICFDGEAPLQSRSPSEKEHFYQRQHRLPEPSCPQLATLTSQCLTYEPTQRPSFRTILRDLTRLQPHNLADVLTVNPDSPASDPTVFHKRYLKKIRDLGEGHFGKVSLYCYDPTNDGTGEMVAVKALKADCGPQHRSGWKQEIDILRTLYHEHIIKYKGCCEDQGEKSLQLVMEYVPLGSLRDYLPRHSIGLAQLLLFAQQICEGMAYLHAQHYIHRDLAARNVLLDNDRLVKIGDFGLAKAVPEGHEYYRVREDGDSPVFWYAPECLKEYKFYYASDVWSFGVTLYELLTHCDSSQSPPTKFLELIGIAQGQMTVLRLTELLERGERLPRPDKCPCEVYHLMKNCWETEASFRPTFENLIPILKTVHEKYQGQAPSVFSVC
Text: as §1, §2, §3, §4, §5, §6, §7, §8, §9, §10, §11, §12, §13, §14, §15, §16, §17, §18, §19, §20, §21, §22

`Cn1cc(Nc2nccc(-c3ccnc(NC(=O)C4CC4)c3)n2)cn1` [TDM-180773, N-(4-(2-((1-methyl-1H-pyrazol-4-yl)amino)pyrimidin-4-yl)-pyridin-2-yl)cyclopropanemethane]: the IC50 against JAK1 and against Tyk2 was at least 10 µM throughout. For `Cn1cc(Nc2nccc(-c3ccnc(NC(=O)CC#N)c3)n2)cn1` [TDM-180774, 2-cyano-N-(4-(2-((1-methyl-1H-pyrazol-4-yl)amino)pyrimidin-4-yl)pyridin-2-yl)acetamide], the IC50 on JAK1 and at Tyk2 was at least 10 µM throughout. Consider `COCC(=O)Nc1cc(-c2ccnc(Nc3cnn(C)c3)n2)ccn1` [TDM-180777, 2-methoxy-N-(4-(2-((1-methyl-1H-pyrazol-4-yl)amino)pyrimidin-4-yl)pyridin-2-yl)acetamide], for which the IC50 against JAK1 and at Tyk2 was at least 10 µM each time. Turning to `Cc1cc(-c2ccnc(Nc3cnn(C)c3)n2)ccc1C(=O)NCC#N` [TDM-180779, N-(cyanomethyl)-2-methyl-4-(2-((1-methyl-1H-pyrazol-4-yl)amino)pyrimidin-4-yl)benzamide], the concentration for half-maximal inhibition (IC50) against JAK1 and against Tyk2 was 1 to 10 µM each time.

For `Cn1cc(Nc2nccc(-c3ccc(C(=O)NC4CC4(F)F)nc3)n2)cn1` (centres unmarked) [TDM-180781, N-(2,2-difluorocyclopropyl)-5-(2-((1-methyl-1H-pyrazol-4-yl)amino)pyrimidin-4-yl)pyridinecarboxamide], the IC50 against JAK1 and against Tyk2 was 1 to 10 µM throughout. With `Cc1cc(-c2ccnc(Nc3cnn(C)c3)n2)ccc1-n1nccc1C1CC1` [TDM-180782, 4-(4-(5-cyclopropyl-1H-pyrazol-1-yl)-3-methylphenyl)-N-(1-methyl-1H-pyrazol-4-yl)pyrimidin-2-amine], the IC50 against JAK1 was at least 10 µM; at Tyk2, 1 to 10 µM.

In the case of `Cc1cc(-c2ccnc(Nc3cnn(C)c3)n2)ccc1NC(=O)CC(F)(F)F` [TDM-180783, 3,3,3-trifluoro-N-(2-methyl-4-(2-((1-methyl-1H-pyrazol-4-yl)amino)pyrimidin-4-yl)phenyl)propanamide], the results for the IC50 at JAK1 and against Tyk2 were 0.1 to 1 µM and 1 to 10 µM, respectively. With `Cc1cc(-c2ccnc(Nc3cnn(C)c3)n2)ccc1C(=O)NCC#N` [TDM-180784, N-(cyanomethyl)-2-methyl-4-(2-((1-methyl-1H-pyrazol-4-yl)amino)pyrimidin-4-yl)benzamide], at JAK1, the IC50 was in the range of 0.1 to 1 µM.

For the compound `Cn1cc(Nc2nccc(-c3ccc(CN4CCOCC4)cc3)n2)cn1` [TDM-180787, N-(1-methyl-1H-pyrazol-4-yl)-4-(4-(morpholinomethyl)phenyl)pyrimidine-2-amine], the IC50 against JAK1 and against Tyk2 was 1 to 10 µM throughout.

With `CN1CCN(Cc2ccc(-c3ccnc(Nc4cnn(C)c4)n3)cc2)CC1` [TDM-180788, N-(1-methyl-1H-pyrazol-4-yl)-4-(4-((4-methylpiperazine-1-yl)methyl)phenyl)pyrimidin-2-amine], the IC50 on JAK1 and against Tyk2 was 1 to 10 µM throughout. With `CC(=O)N1CCN(Cc2ccc(-c3ccnc(Nc4cnn(C)c4)n3)cc2)CC1` [TDM-180789, 1-(4-(4-(2-((1-methyl-1H-pyrazol-4-yl)amino)pyrimidin-4-yl)benzyl)piperazin-1-yl)ethan-1-one], the IC50 is at least 10 µM on JAK1 and 1 to 10 µM on Tyk2. On the same counts, the results for `Cn1cc(Nc2nccc(-c3ccnc(NC(=O)CC(F)(F)F)c3)n2)cn1` [TDM-180790, 3,3,3-trifluoro-N-(4-(2-((1-methyl-1H-pyrazol-4-yl)amino)pyrimidin-4-yl)pyridin-2-yl)propanamide] are at least 10 µM and at least 10 µM. For `Cn1cc(Nc2nccc(-c3ccc(NC(=O)CO)cc3)n2)cn1` [TDM-180791, 2-hydroxy-N-(4-(2-((1-methyl-1H-pyrazol-4-yl)amino)pyrimidin-4-yl)phenyl)acetamide], the IC50 at JAK1 lay within 0.1 to 1 µM; on Tyk2, 1 to 10 µM. Turning to `Cn1cc(Nc2nccc(-c3ccnc(NC(=O)C4CC4(F)F)c3)n2)cn1` (centres unmarked) [TDM-180792, 2,2-difluoro-N-(4-(2-((1-methyl-1H-pyrazol-4-yl)amino)pyrimidin-4-yl)pyridin-2-yl)cyclopropane-1-carboxamide], the IC50 against JAK1 and on Tyk2 was at least 10 µM each time. In the case of `COCCC(=O)Nc1ccc(-c2ccnc(Nc3cnn(C)c3)n2)cc1` [TDM-180799, 3-methoxy-N-(4-(2-((1-methyl-1H-pyrazol-4-yl)amino)pyrimidin-4-yl)phenyl)propanamide], the IC50 was in the range of 0.1 to 1 µM against JAK1 and 1 to 10 µM against Tyk2. Consider `Cn1cc(Nc2nccc(-c3ccc(NC(=O)CO)nc3)n2)cn1` [TDM-180806, 2-hydroxy-N-(5-(2-((1-methyl-1H-pyrazol-4-yl)amino)pyrimidin-4-yl)pyridin-2-yl)acetamide], for which the IC50 against JAK1 and on Tyk2 was 1 to 10 µM throughout. As to `Cn1cc(Nc2nccc(-c3ccc(C(=O)NC4CC4)nc3)n2)cn1` [TDM-180826, N-cyclopropyl-5-(2-((1-methyl-1H-pyrazol-4-yl)amino)pyrimidin-4-yl)pyridinecarboxamide], the IC50 at JAK1 and against Tyk2 was 1 to 10 µM throughout.

For the compound `CCS(=O)(=O)Nc1ccc(-c2ccnc(Nc3cnn(C)c3)n2)cn1` [TDM-180829, N-(5-(2-((1-methyl-1H-pyrazol-4-yl)amino)pyrimidin-4-yl)pyridin-2-yl)ethanesulfonamide], the IC50 at JAK1 and against Tyk2 was 1 to 10 µM each time. `COCC(=O)Nc1ccc(-c2ccnc(Nc3cnn(C)c3)n2)cn1` [TDM-180831, 2-methoxy-N-(5-(2-((1-methyl-1H-pyrazol-4-yl)amino)pyrimidin-4-yl)pyridin-2-yl)acetamide]: the IC50 at JAK1 is 1 to 10 µM; on Tyk2 it was at least 10 µM. On the same counts, the results for `Cn1cc(Nc2nccc(-c3ccc(C(=O)NC4CC4)cc3)n2)cn1` [TDM-180852, N-cyclopropyl-4-(2-((1-methyl-1H-pyrazol-4-yl)amino)pyrimidin-4-yl)benzamide] are 1 to 10 µM and 1 to 10 µM.

On to `Cn1cc(Nc2nccc(-c3ccc(NC(=O)C4(C)CC4)nc3)n2)cn1` [TDM-180853, 1-methyl-N-(5-(2-((1-methyl-1H-pyrazol-4-yl)amino)pyrimidin-4-yl)pyridin-2-yl)cyclopropane-1-carboxamide], for which the IC50 on JAK1 and on Tyk2 was 1 to 10 µM throughout. Take `Cn1cc(Nc2nccc(-c3ccc(NC(=O)CC#N)c4[nH]ccc34)n2)cn1` [TDM-180867, 2-cyano-N-(4-(2-((1-methyl-1H-pyrazol-4-yl)amino)pyrimidin-4-yl)-1H-indol-7-yl)acetamide]: the IC50 against JAK1 and against Tyk2 was 0.1 to 1 µM each time. `Cn1cc(Nc2nccc(-c3ccc(NC(=O)C4CC4(F)F)c4[nH]ccc34)n2)cn1` (centres unmarked) [TDM-180868, 2,2-difluoro-N-(4-(2-((1-methyl-1H-pyrazol-4-yl)amino)pyrimidin-4-yl)-1H-indol-7-yl)cyclopropane-1-carboxamide]: the IC50 at JAK1 and against Tyk2 was under 0.1 µM throughout. For the compound `Cn1cc(Nc2nccc(-c3ccc(NC(=O)C4CC4)c4[nH]ccc34)n2)cn1` [TDM-180869, N-(4-(2-((1-methyl-1H-pyrazol-4-yl)amino)pyrimidin-4-yl)-1H-indol-7-yl)cyclopropanecarboxamide], the IC50 on JAK1 and at Tyk2 was 0.1 to 1 µM throughout.

As usually defined, the IC50 is the midpoint of a concentration-inhibition curve. Lower therefore signals greater potency in that assay.
